Patent publication US12612411B1, “Imidazopyrazine derivatives, process for preparation thereof, and their uses as luciferins” (INSTITUT PASTEUR, priority 2017, dated 2026)

Target: T1, nanoKAZ luciferase (Oplophorus gracilirostris, UniProt Q9GV45, A31E/A60N/A81I/F95D/I117V/K70R/L54V/L99Q/M102K/N193R/P142E/Q151K/Q38R/Q45L/V71I/Y165I)
T1 construct: luciferase catalytic domain (nanoKAZ, 19 kDa) from the Oplophorus-derived luciferase; host or cells: cell-free: 1-Step Human Coupled IVT Kit, pT7CFE1-based vector
Assay: In vitro bioluminescence screening of imidazo[1,2-a]pyrazin-3(7H)-ones with nanoKAZ expressed in vitro (96-well luminometer, 2 h kinetic)
Type: biochemical
Conditions: Table 1; furimazine = 1
Procedure: General protocol for the generation of solutions of imidazo[1,2-a]pyrazin-3(7H)-one Q by acidic hydrolysis of imidazo[1,2-a]pyrazin-3-yl acetate derivatives P. The considered acetate P (1 mg) was dissolved in DMSO (0.2 mL) and then diluted by adding a solution of acidic ethanol (0.3 ml) made from the addition of 37% hydrochloric acid (100 μl) on 100% ethanol (12 mL). This 0.5 mL solution was incubated at 50° C. for 2 hours to give a stock solution which was then stored at −80° C. […] Nota: these conditions are only adapted to the hydrolysis of the protecting group (as defined above) of the oxygen on position 2 of the imidazo[1,2-a]pyrazine ring system and not to the hydrolysis of any additional acetyl groups eventually present elsewhere on the substrate of this reaction.
The representative bioluminescence curves shown in the FIG. 2 provided an assessment for furimazine (Q-1), 8-benzyl-2-(furan-2-ylmethyl)-6-(4-hydroxyphenyl)imidazo[1,2-a]pyrazin-3 (7/1)-one (Q-80), 8-(2-fluorobenzyl)-2-(furan-2-ylmethyl)-6-phenylimidazo[1,2-a]pyrazin-3(7H)-one (Q-84), and 8-(2-fluorobenzyl)-2-((5-methylfuran-2-yl)methyl)-6-phenylimidazo[1,2-a]pyrazin-3(7H)-one (Q-85) was obtained using a luciferase expressed in vitro as described in the following. The nanoKAZ DNA template was cloned into Thermo Scientific pT7CFE1-based vector and nanoKAZ was expressed using ThermoFisher Scientific 1-Step Human Coupled IVT Kit—DNA (ref. 88881) according to the manufacturer instructions. The resulting reaction mix was diluted 400 times in buffer (DPBS (Gibco)+0.1% (v/v) Tween 20) and conserved at −80° C. The screening of the imidazo[1,2-a]pyrazin-3(7H)-ones was performed in 96 well plates using 50 μL/well of a 1/20 dilution in DPBS (Gibco)+0.1% (v/v) Tween 20 of the nanoKAZ solution.
To illustrate the bioluminescence properties improvement achieved for many of the imidazo[1,2-a]pyrazin-3(7H)-ones described here, four values are provided in Table 1: maximum intensity (V1), signal half-life (V2), area under the curve for ten minutes (V3), and area under the curve for two hours (V4), normalized using furimazine (Q-1) as a reference.
The bioluminescence properties of the tested compounds are considered to be improved when at least one of the values V1-V4 is above 1, and when none of the V1-V4 values is 0.05 or below.
By following the hydrolysis protocol described above, the following imidazo[1,2-a]pyrazin-3(7H)-ones luciferins Q were made in situ from the corresponding O-protected imidazo[1,2-a]pyrazines P and evaluated for their bioluminescence properties (maximum intensity (V1), signal half-life (V2), area under the curve for […], normalized using furimazine (Q-1) as a reference): […]

T1 sequence (Q9GV45 other isoform, or with tags, fused parts or gaps with the stated changes): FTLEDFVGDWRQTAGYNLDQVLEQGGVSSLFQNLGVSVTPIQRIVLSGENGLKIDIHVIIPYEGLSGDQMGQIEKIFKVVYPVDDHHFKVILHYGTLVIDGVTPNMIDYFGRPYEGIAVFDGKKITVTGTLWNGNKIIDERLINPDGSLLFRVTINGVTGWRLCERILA

Structure (SMILES)	V1: maximum intensity, normalized using furimazine (Q-1) as a reference	V3: area under the curve for ten minutes, normalized using furimazine (Q-1) as a reference	V4: area under the curve for two hours, normalized using furimazine (Q-1) as a reference
CCc1ccc(Cc2nc3c(Cc4ccccc4)[nH]c(-c4ccccc4)cn-3c2=O)o1 [Q-12, 8-benzyl-2-((5-ethylfuran-2-yl)methyl)-6-phenylimidazo[1,2-a]pyrazin-3(7H)-one]	2.28	2.2	1.28
Cc1cccc(Cc2nc3c(Cc4ccccc4)[nH]c(-c4ccccc4)cn-3c2=O)c1 [Q-14, 8-benzyl-2-(3-methylbenzyl)-6-phenylimidazo[1,2-a]pyrazin-3(7H)-one]	1.8	1.66	0.96
Cc1cc(Cc2nc3c(Cc4ccccc4)[nH]c(-c4ccccc4)cn-3c2=O)oc1C [Q-16, 8-benzyl-2-((4,5-dimethylfuran-2-yl)methyl)-6-phenylimidazo[1,2-a]pyrazin-3(7H)-one]	2.07	1.88	0.93
COc1cccc(Cc2nc3c(Cc4ccccc4)[nH]c(-c4ccccc4)cn-3c2=O)c1 [Q-18, 8-benzyl-2-(3-methoxybenzyl)-6-phenylimidazo[1,2-a]pyrazin-3(7H)-one]	1.53	1.41	0.97
O=c1c(Cc2ccccc2)nc2c(Cc3ccccc3)[nH]c(-c3ccccc3F)cn1-2 [Q-20, 2,8-dibenzyl-6-(2-fluorophenyl)imidazo[1,2-a]pyrazin-3(7H)-one]	2	1.59	0.66
O=c1c(Cc2ccco2)nc2c(Cc3ccccc3)[nH]c(-c3ccccc3F)cn1-2 [Q-21, 8-benzyl-6-(2-fluorophenyl)-2-(furan-2-ylmethyl)imidazo[1,2-a]pyrazin-3(7H)-one]	1.39	1.33	1.08
O=c1c(Cc2ccco2)nc2c(Cc3ccccc3)[nH]c(-c3c(F)cccc3F)cn1-2 [Q-27, 8-benzyl-6-(2,6-difluorophenyl)-2-(furan-2-ylmethyl)imidazo[1,2-a]pyrazin-3(7H)-one]	1.04	1.02	0.97
O=c1c(Cc2ccc(C(F)(F)F)o2)nc2c(Cc3ccccc3)[nH]c(-c3ccccc3)cn1-2 [Q-28, 8-benzyl-6-phenyl-2-((5-(trifluoromethyl)furan-2-yl)methyl)imidazo[1,2-a]pyrazin-3(7H)-one]	1.31	1.11	0.62
O=c1c(Cc2ccccc2)nc2c(Cc3ccccc3)[nH]c(-c3c(F)cccc3F)cn1-2 [Q-29, 2,8-dibenzyl-6-(2,6-difluorophenyl)imidazo[1,2-a]pyrazin-3(7H)-one]	1.86	1.48	0.55
Cc1ccc(Cc2nc3c(Cc4ccccc4)[nH]c(-c4ccccc4F)cn-3c2=O)o1 [Q-34, 8-benzyl-6-(2-fluorophenyl)-2-((5-methylfuran-2-yl)methyl)imidazo[1,2-a]pyrazin-3(7H)-one]	2.17	1.89	1.13
O=c1c(Cc2ccc(C3CC3)o2)nc2c(Cc3ccccc3)[nH]c(-c3ccccc3)cn1-2 [Q-36, 8-benzyl-2-((5-cyclopropylfuran-2-yl)methyl)-6-phenylimidazo[1,2-a]pyrazin-3(7H)-one]	1.74	1.64	0.83
O=c1c(Cc2cccc(F)c2)nc2c(Cc3ccccc3)[nH]c(-c3ccccc3)cn1-2 [Q-41, 8-benzyl-2-(3-fluorobenzyl)-6-phenylimidazo[1,2-a]pyrazin-3(7H)-one]	1.49	1.28	0.74
CCc1ccc(Cc2nc3c(Cc4ccccc4)[nH]c(-c4ccccc4F)cn-3c2=O)o1 [Q-51, 8-benzyl-2-((5-ethylfuran-2-yl)methyl)-6-(2-fluorophenyl)imidazo[1,2-a]pyrazin-3(7H)-one]	2.59	2.33	1.19
Cc1ccc(Cc2nc3c(Cc4ccccc4)[nH]c(-c4cccc(F)c4)cn-3c2=O)o1 [Q-54, 8-benzyl-6-(3-fluorophenyl)-2-((5-methylfuran-2-yl)methyl)imidazo[1,2-a]pyrazin-3(7H)-one]	2.73	2.32	1.22
O=c1c(Cc2ccccc2F)nc2c(Cc3ccccc3)[nH]c(-c3ccccc3)cn1-2 [Q-56, 8-benzyl-2-(2-fluorobenzyl)-6-phenylimidazo[1,2-a]pyrazin-3(7H)-one]	1.84	1.51	0.7
CCc1ccc(Cc2nc3c(Cc4ccccc4)[nH]c(-c4ccccc4)cn-3c2=O)s1 [Q-58, 8-benzyl-2-((5-ethylthiophen-2-yl)methyl)-6-phenylimidazo[1,2-a]pyrazin-3(7H)-one]	1.71	1.61	0.69
Cc1cc(Cc2nc3c(Cc4ccccc4)[nH]c(-c4ccccc4F)cn-3c2=O)oc1C [Q-61, 8-benzyl-2-((4,5-dimethylfuran-2-yl)methyl)-6-(2-fluorophenyl)imidazo[1,2-a]pyrazin-3(7H)-one]	2.13	1.97	0.78
